Series [1] can be described thus: Selectivity index, ratio of IC50 for rat L6 cells to IC50 for Plasmodium falciparum K1. Format: toxicity, cell-based. Particulars: read-out: Ratio IC50.
For another series, the system named is Plasmodium falciparum. The series is described as follows: Antiplasmodial activity against Plasmodium falciparum K1 infected in human blood by [3H]hypoxanthine incorporation assay. Format: functional, organism-based.
For another series, the system named is L6. The series is described as follows: Cytotoxicity against rat L6 cells. The class given is cell-based.
The test system of series [2] is Mus musculus. The series is described as follows: Toxicity in albino mouse assessed as mean survival days at 30 mg/kg, ip for 4 days. Format: organism-based. On the set-up: dose 30 mg/kg, route intraperitoneal. As to conditions: in vivo, 96 h.
The test system of series [3] is Plasmodium berghei. The series is described as follows: Antimalarial activity against Plasmodium berghei ANKA infected in albino mice (Mus musculus) assessed as reduction in parasitemia at 30 mg/kg, intraperitoneal for 4 days. The class given is functional. More on the design: scale not given: the % may be the effect or the level left.
The test system of series [4] is Mus musculus. The series is described as follows: Toxicity in albino mouse assessed as mean survival days at 50 mg/kg, ip for 4 days. More on the design: dose 50 mg/kg, route intraperitoneal. As to conditions: in vivo, 96 h. The class given is organism-based.
In series [5] the test system is Plasmodium berghei. The series is described as follows: Antimalarial activity against Plasmodium berghei ANKA infected in albino mice (Mus musculus) assessed as reduction in parasitemia at 50 mg/kg, intraperitoneal for 4 days. More on the design: scale not given: the % may be the effect or the level left. The class given is functional.
In series [6] the test system is Mus musculus. The series is described as follows: Toxicity in albino mouse assessed as mean survival days at 10 mg/kg, ip for 4 days. Format: organism-based. More on the design: dose 10 mg/kg, route intraperitoneal. Particulars: in vivo, 96 h.

The term IC50 denotes the concentration that inhibits the measured activity by half.

Regarding `O=C(CN1CCCC1)NC1CC2(N3CCCCC3)CC(c3ccccc3)C1C(c1ccccc1)C2` (stereo unspecified), in series [1], the selectivity ratio came to 191. The IC50 with Plasmodium falciparum amounted to 110 nM; in the series on L6 it was 21000 nM.

`CN(C)C12CCN(CCN3CCCC3)C(C(c3ccccc3)C1)C(c1ccccc1)C2` (stereo unspecified): the selectivity ratio in series [1] was 136.

In the case of `c1ccc(C2CC3(N4CCCC4)CCN(CCN4CCCC4)C2C(c2ccccc2)C3)cc1` (stereo unspecified), the selectivity ratio in series [1] came to 116.

Consider `CN(C)C12CCN(C(=O)CCN3CCCCC3)C(C(c3ccccc3)C1)C(c1ccccc1)C2` (racemic), for which the selectivity ratio in series [1] was 120. Moreover, the half-inhibitory concentration (IC50) came out at 1070 nM with Plasmodium falciparum and 128000 nM in the series with L6.

Turning to `O=C(CCN1CCCCC1)N1CCC2(N3CCCC3)CC(c3ccccc3)C1C(c1ccccc1)C2` (racemic), the selectivity ratio in series [1] is 300. Moreover, the IC50 in the series on Plasmodium falciparum was 360 nM; in the series with L6 it was 108000 nM. Further, in the series on Mus musculus [2], the MSD came to 6.7 days. Moreover, the Activity with Plasmodium berghei [3] stood at 27.2%.

Turning to `O=C(CCN1CCCCC1)N1CCC2(N3CCCCC3)CC(c3ccccc3)C1C(c1ccccc1)C2` (racemic), the selectivity ratio in series [1] came to 336. Besides, the values for the IC50 in the series on Plasmodium falciparum and in the series with L6 were 190 nM and 63900 nM, respectively. Further, the MSD in the series with Mus musculus [4] amounted to 6 days. In the series on Plasmodium berghei [5], the Activity came out at 36.5%.

Take `CCN1CCN(CCN2CCC3(N(C)C)CC(c4ccccc4)C2C(c2ccccc2)C3)CC1` (racemic): the selectivity ratio in series [1] came out at 170. Further, the IC50 in the series on Plasmodium falciparum was 340 nM; in the series with L6, 58000 nM.

Consider `CCN1CCN(CCN2CCC3(N4CCCC4)CC(c4ccccc4)C2C(c2ccccc2)C3)CC1` (racemic), for which, in series [1], the selectivity ratio was 298. For the same molecule, the figures for the IC50 with Plasmodium falciparum and in the series with L6 were 180 nM and 53600 nM, respectively. The MSD in the series with Mus musculus [2] stood at 7 days. For the same molecule, the Activity in the series on Plasmodium berghei [3] was determined as 8.9%.

With `CCN1CCN(CCN2CCC3(N4CCCCC4)CC(c4ccccc4)C2C(c2ccccc2)C3)CC1` (racemic), the selectivity ratio in series [1] stood at 482. Moreover, the results for the IC50 in the series on Plasmodium falciparum and in the series with L6 were 140 nM and 67500 nM, respectively. In the series with Mus musculus [2], the MSD worked out at 7 days. Moreover, in the series on Plasmodium berghei [3], the Activity is recorded as 0%.

Take `CN(C)C12CCN(CCCN3CCCCC3)C(C(c3ccccc3)C1)C(c1ccccc1)C2` (racemic): the selectivity ratio in series [1] turned out to be 162. Besides, the half-maximal inhibitory concentration (IC50) was found to be 360 nM in the series on Plasmodium falciparum and 58400 nM with L6.

Regarding `c1ccc(C2CC3(N4CCCC4)CCN(CCCN4CCCCC4)C2C(c2ccccc2)C3)cc1` (racemic), in series [1], the selectivity ratio is 287. Moreover, the results for the IC50 in the series on Plasmodium falciparum and with L6 were 100 nM and 28700 nM, respectively. Besides, in the series on Mus musculus [2], the MSD is 7 days. Besides, the Activity in the series on Plasmodium berghei [3] is recorded as 31%.

Regarding `c1ccc(C2CC3(N4CCCCC4)CCN(CCCN4CCCCC4)C2C(c2ccccc2)C3)cc1` (racemic), the selectivity ratio in series [1] is 1150. For the same molecule, the half-inhibitory concentration (IC50) in the series on Plasmodium falciparum turned out to be 120 nM; with L6 it was 138000 nM. Moreover, the MSD in the series with Mus musculus [4] came out at 8 days. In addition, the Activity in the series on Plasmodium berghei [5] stood at 30.4%.

`C[C@@H]1CC[C@H]2[C@@H](C)C(=O)O[C@@H]3O[C@@]4(C)CC[C@@H]1[C@]32OO4` [ARTEMISININ] returned an IC50 with Plasmodium falciparum of 6.4 nM.

Consider `CCN(CC)CCCC(C)Nc1ccnc2cc(Cl)ccc12` (stereo unspecified) [CHLOROQUINE], for which the MSD in the series with Mus musculus [6] amounted to 20 days.

Values taken from ChEMBL document CHEMBL1221362, “Dialkylaminoalkyl derivatives of bicyclic compounds with antiplasmodial activity” (Bioorg Med Chem, 2010).
